In patent US12281149B2, “Modulators of G-protein coupled receptors” (priority 2021, dated 2025):
Like-named read-outs stand apart in the source and are kept apart here. *1 amine or outer side, *2 acyl side, *3 side chain or, on linkers, in order; H or OH if unused. Where a SMILES comes first, the peptide text is derived from it. Side-chain parts run from the residue outwards. [ ]: non-standard residue; d: D form. The star is where a group is joined. Isobutyryl(2-(3-CN-5-F-Ph)) = CC(C)(C(=O)*)c1cc(F)cc(C#N)c1; C20 diacid = O=C(O)CCCCCCCCCCCCCCCCCCC(=O)*; NH(3,5-Cl2-phenyl) = Clc1cc(Cl)cc(N*)c1; γGlu = O=C(O)[C@H](CCC(=O)[*:2])N[*:1]; Trx = NC[C@H]1CC[C@H](C(=O)O)CC1; X25 = CC(C)(C(=O)*)n1cc(F)cn1; αMeL = CC(C)C[C@](C)(N)C(=O)O; β3hD = NC(CC(=O)O)CC(=O)O; Orn = NCCC[C@H](N)C(=O)O; AEEA = NCCOCCOCC(=O)O; Aib = CC(C)(N)C(=O)O; CO = O=C([*:1])[*:2]; GABA = NCCCC(=O)O; βAla = NCCC(=O)O

Tests used:
Assay type in all cases: cell-based
[1] = molecular target: T1, GIP receptor (Homo sapiens, UniProt P48546); test: HitHunter cAMP assay, GIP receptor; details: for Emax: read-out: Emax GIP-1R
T1 sequence (P48546 22-466): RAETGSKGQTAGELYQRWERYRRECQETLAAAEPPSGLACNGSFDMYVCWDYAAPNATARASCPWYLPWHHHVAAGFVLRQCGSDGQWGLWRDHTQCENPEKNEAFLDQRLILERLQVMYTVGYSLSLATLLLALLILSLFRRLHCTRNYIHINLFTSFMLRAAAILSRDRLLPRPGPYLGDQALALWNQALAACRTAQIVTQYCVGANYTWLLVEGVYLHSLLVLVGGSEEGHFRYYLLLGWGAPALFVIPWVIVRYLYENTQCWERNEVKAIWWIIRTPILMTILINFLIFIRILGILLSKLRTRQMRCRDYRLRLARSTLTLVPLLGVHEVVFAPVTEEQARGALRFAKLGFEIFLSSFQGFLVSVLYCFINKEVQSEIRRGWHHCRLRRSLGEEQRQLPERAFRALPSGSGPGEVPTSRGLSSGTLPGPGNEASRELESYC

[2] = molecular target: T1, GIP receptor; test: PathHunter β-arrestin assay, GIP receptor; design: host or cells: PathHunter CHO-K1 GIPR β-Arrestin Cell Line
[3] = molecular target: T2, GLP-1 receptor (Homo sapiens, UniProt P43220); test: HitHunter cAMP assay, GLP-1 receptor; details: for Emax: read-out: Emax GLP-1R
[4] = molecular target: T2, GLP-1 receptor; test: PathHunter β-arrestin assay, GLP-1 receptor; design: host or cells: PathHunter CHO-K1 GLP1R β-Arrestin Cell Line
[5] = CHO cells stably expressing GIP receptor, cAMP accumulation, 30 min, read-out: EC50 GIP-1R
[6] = CHO cells, cAMP, normalized to maximum signal from GIP (high) and DMSO (low)
[7] = β-arrestin-2 recruitment, PathHunter CHO-K1 GIPR β-Arrestin Cell Line, 90 min at 37° C., normalized to GIP, read-out: GIPR β Arrestin EC50
[8] = CHO cells stably expressing human GLP-1 receptor, cAMP accumulation, 30 min, read-out: EC50 GLP-1R
[9] = CHO cells, cAMP, normalized to maximum signal from GLP-1 (high) and DMSO (low)
[10] = β-arrestin-2 recruitment, PathHunter CHO-K1 GLP1R β-Arrestin Cell Line, 90 min at 37° C., normalized to GLP-1, read-out: GLP-1R β Arrestin EC50

T2 sequence (P43220 24-463): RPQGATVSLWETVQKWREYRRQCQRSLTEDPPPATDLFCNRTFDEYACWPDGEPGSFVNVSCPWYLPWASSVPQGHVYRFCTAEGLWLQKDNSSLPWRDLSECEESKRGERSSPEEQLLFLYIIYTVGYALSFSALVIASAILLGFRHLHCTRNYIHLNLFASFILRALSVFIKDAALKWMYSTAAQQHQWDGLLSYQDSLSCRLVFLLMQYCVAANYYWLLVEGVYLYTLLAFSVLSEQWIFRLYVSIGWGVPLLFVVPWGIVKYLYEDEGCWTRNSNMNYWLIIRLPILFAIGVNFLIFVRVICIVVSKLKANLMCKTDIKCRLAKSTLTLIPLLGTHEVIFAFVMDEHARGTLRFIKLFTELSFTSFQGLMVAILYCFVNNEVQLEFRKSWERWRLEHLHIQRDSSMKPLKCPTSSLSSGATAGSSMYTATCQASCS

| SMILES | EC50 [1, 5] | Emax [1, 6] | EC50 [2, 7] | EC50 [3, 8] | Emax [3, 9] | EC50 [4, 10] | EC50 [1] | Emax ([1]; CHO) | EC50 [2] | EC50 [3] | Emax ([3]; CHO) | EC50 [4] |
| --- | --- | --- | --- | --- | --- | --- | --- | --- | --- | --- | --- | --- |
| CC[C@H](C)[C@H](NC(=O)[C@H](CC(C)C)NC(=O)[C@H](Cc1c[nH]c2ccccc12)NC(=O)[C@H](CCC(N)=O)NC(=O)[C@@H](NC(=O)[C@H](Cc1ccccc1)NC(=O)[C@H](C)NC(=O)[C@H](CCCCNC(=O)COCCOCCNC(=O)COCCOCCNC(=O)CC[C@H](NC(=O)CCCCCCCCCCCCCCCCCCC(=O)O)C(=O)O)NC(=O)[C@H](CCC(N)=O)NC(=O)[C@H](C)NC(=O)[C@@H](NC(=O)[C@H](CCCCN)NC(=O)[C@H](CC(=O)O)NC(=O)[C@H](CC(C)C)NC(=O)C(C)(C)NC(=O)[C@@H](NC(=O)[C@H](CO)NC(=O)[C@H](Cc1ccc(O)cc1)NC(=O)[C@H](CC(=O)O)NC(=O)[C@H](CO)NC(=O)[C@@H](NC(=O)[C@H](Cc1ccccc1)NC(=O)[C@@H](NC(=O)CNC(=O)[C@H](CCC(=O)O)NC(=O)CCNC(=O)C(C)(C)n1cc(F)cn1)[C@@H](C)O)[C@@H](C)O)[C@@H](C)CC)[C@@H](C)CC)C(C)C)C(=O)N[C@@H](C)C(=O)NCC(=O)NCC(=O)N1CCC[C@H]1C(=O)N[C@@H](CO)C(=O)N[C@@H](CO)C(=O)NCC(=O)N[C@@H](C)C(=O)N1CCC[C@H]1C(=O)N1CCC[C@H]1C(=O)N1CCC[C@H]1C(=O)N[C@@H](CO)C(N)=O [Compound 132] ({X25-βAla}-EGTFTSDYSI[Aib]LDKIAQK([AEEA-AEEA-γGlu-C20 diacid])AFVQWLIAGGPSSGAPPPS-NH2) | 10 to 100 nM | 104% | > 1000 nM | < 0.1 nM | 98% | < 1000 nM |  |  |  |  |  |  |
| CC[C@H](C)[C@H](NC(=O)[C@H](CC(C)C)NC(=O)[C@H](Cc1c[nH]c2ccccc12)NC(=O)[C@H](CCC(N)=O)NC(=O)[C@@H](NC(=O)[C@H](Cc1ccccc1)NC(=O)[C@H](C)NC(=O)[C@H](CCCCNC(=O)COCCOCCNC(=O)COCCOCCNC(=O)CC[C@H](NC(=O)CCCCCCCCCCCCCCCCCCC(=O)O)C(=O)O)NC(=O)[C@H](CCC(N)=O)NC(=O)[C@H](C)NC(=O)[C@@H](NC(=O)[C@H](CCCCN)NC(=O)[C@H](CC(=O)O)NC(=O)[C@H](CC(C)C)NC(=O)C(C)(C)NC(=O)[C@@H](NC(=O)[C@H](CO)NC(=O)[C@H](Cc1ccc(O)cc1)NC(=O)[C@H](CC(=O)O)NC(=O)[C@H](CO)NC(=O)[C@@H](NC(=O)[C@H](Cc1ccccc1)NC(=O)[C@@H](NC(=O)CNC(=O)[C@H](CCC(=O)O)NC(=O)CCCNC(=O)CNC(=O)Nc1cc(Cl)cc(Cl)c1)[C@@H](C)O)[C@@H](C)O)[C@@H](C)CC)[C@@H](C)CC)C(C)C)C(=O)N[C@@H](C)C(=O)NCC(=O)NCC(=O)N1CCC[C@H]1C(=O)N[C@@H](CO)C(=O)N[C@@H](CO)C(=O)NCC(=O)N[C@@H](C)C(=O)N1CCC[C@H]1C(=O)N1CCC[C@H]1C(=O)N1CCC[C@H]1C(=O)N[C@@H](CO)C(N)=O [Compound 266] ({NH(3,5-Cl2-phenyl)-CO}-G[GABA]EGTFTSDYSI[Aib]LDKIAQK([AEEA-AEEA-γGlu-C20 diacid])AFVQWLIAGGPSSGAPPPS-NH2) |  |  |  |  |  |  | 1 to 10 nM | 105% | < 1000 nM | 1 to 10 nM | 105% | > 1000 nM |
| CC[C@H](C)[C@H](NC(=O)[C@H](CC(C)C)NC(=O)[C@H](Cc1ccc(O)cc1)NC(=O)[C@@H](CCC(=O)O)NC(=O)[C@@H](NC(=O)[C@H](Cc1ccccc1)NC(=O)[C@H](CCC(=O)O)NC(=O)C(C)(C)NC(=O)[C@H](CCC(N)=O)NC(=O)[C@H](C)NC(=O)[C@H](CCCCNC(=O)COCCOCCNC(=O)COCCOCCNC(=O)CC[C@H](NC(=O)CCCCCCCCCCCCCCCCCCC(=O)O)C(=O)O)NC(=O)[C@H](CCCN)NC(=O)[C@H](CC(=O)O)NC(=O)[C@H](CC(C)C)NC(=O)[C@](C)(CC(C)C)NC(=O)[C@@H](NC(=O)[C@H](CO)NC(=O)[C@H](Cc1ccc(O)cc1)NC(=O)[C@H](CC(=O)O)NC(=O)[C@H](CO)NC(=O)[C@@H](NC(=O)[C@H](Cc1ccccc1)NC(=O)[C@@H](NC(=O)CNC(=O)[C@H](CCC(=O)O)NC(=O)CCNC(=O)C(C)(C)c1cc(F)cc(C#N)c1)[C@@H](C)O)[C@@H](C)O)[C@@H](C)CC)[C@@H](C)CC)C(=O)N[C@@H](CCC(=O)O)C(=O)NCC(=O)NCC(=O)N1CCC[C@H]1C(=O)N[C@@H](CO)C(=O)N[C@@H](CO)C(=O)NCC(=O)N[C@@H](C)C(=O)N1CCC[C@H]1C(=O)N1CCC[C@H]1C(=O)N1CCC[C@H]1C(=O)N[C@@H](CO)C(N)=O [Compound 134] ({Isobutyryl(2-(3-CN-5-F-Ph))-βAla}-EGTFTSDYSI[αMeL]LD[Orn]K([AEEA-AEEA-γGlu-C20 diacid])AQ[Aib]EFI[dE]YLIEGGPSSGAPPPS-NH2) | 1 to 10 nM | 109% | > 1000 nM | 0.1 to 1 nM | 102% | > 1000 nM |  |  |  |  |  |  |
| CC[C@H](C)[C@H](NC(=O)[C@H](CC(C)C)NC(=O)[C@H](Cc1c[nH]c2ccccc12)NC(=O)[C@H](CCC(N)=O)NC(=O)[C@@H](NC(=O)[C@H](Cc1ccccc1)NC(=O)[C@H](C)NC(=O)[C@H](CCCCNC(=O)CC[C@H](NC(=O)CC[C@H](NC(=O)CC[C@H](NC(=O)[C@H]1CC[C@H](CNC(=O)CCCCCCCCCCCCCCCCCCC(=O)O)CC1)C(=O)O)C(=O)O)C(=O)O)NC(=O)[C@H](CCC(N)=O)NC(=O)[C@H](C)NC(=O)[C@@H](NC(=O)[C@H](CCCCN)NC(=O)[C@H](CC(=O)O)NC(=O)[C@H](CC(C)C)NC(=O)C(C)(C)NC(=O)[C@@H](NC(=O)[C@H](CO)NC(=O)[C@H](Cc1ccc(O)cc1)NC(=O)[C@H](CC(=O)O)NC(=O)[C@H](CO)NC(=O)[C@@H](NC(=O)[C@H](Cc1ccccc1)NC(=O)[C@@H](NC(=O)CNC(=O)[C@H](CCC(=O)O)NC(=O)CCNC(=O)C(C)(C)c1cc(F)cc(C#N)c1)[C@@H](C)O)[C@@H](C)O)[C@@H](C)CC)[C@@H](C)CC)C(C)C)C(=O)N[C@@H](C)C(=O)NCC(=O)NCC(=O)N1CCC[C@H]1C(=O)N[C@@H](CO)C(=O)N[C@@H](CO)C(=O)NCC(=O)N[C@@H](C)C(=O)N1CCC[C@H]1C(=O)N1CCC[C@H]1C(=O)N1CCC[C@H]1C(=O)N[C@@H](CO)C(N)=O [Compound 107] ({Isobutyryl(2-(3-CN-5-F-Ph))-βAla}-EGTFTSDYSI[Aib]LDKIAQK([γGlu-γGlu-γGlu-Trx-C20 diacid])AFVQWLIAGGPSSGAPPPS-NH2) | 1 to 10 nM | 106% | < 1000 nM | 0.1 to 1 nM | 95% | > 1000 nM |  |  |  |  |  |  |
| CC[C@H](C)[C@H](NC(=O)[C@H](CC(C)C)NC(=O)[C@H](Cc1c[nH]c2ccccc12)NC(=O)[C@H](CCC(N)=O)NC(=O)[C@@H](NC(=O)[C@H](Cc1ccccc1)NC(=O)[C@H](C)NC(=O)[C@H](CCCCNC(=O)COCCOCCNC(=O)COCCOCCNC(=O)CC[C@H](NC(=O)CCCCCCCCCCCCCCCCCCC(=O)O)C(=O)O)NC(=O)[C@H](CCC(N)=O)NC(=O)[C@H](C)NC(=O)[C@@H](NC(=O)[C@H](CCCCN)NC(=O)[C@H](CC(=O)O)NC(=O)[C@H](CC(C)C)NC(=O)C(C)(C)NC(=O)[C@@H](NC(=O)[C@H](CO)NC(=O)[C@H](Cc1ccc(O)cc1)NC(=O)[C@H](CC(=O)O)NC(=O)[C@H](CO)NC(=O)[C@@H](NC(=O)[C@H](Cc1ccccc1)NC(=O)[C@@H](NC(=O)CNC(=O)C[C@H](CC(=O)O)NC(=O)CCNC(=O)C(C)(C)c1cc(F)cc(C#N)c1)[C@@H](C)O)[C@@H](C)O)[C@@H](C)CC)[C@@H](C)CC)C(C)C)C(=O)N[C@@H](C)C(=O)NCC(=O)NCC(=O)N1CCC[C@H]1C(=O)N[C@@H](CO)C(=O)N[C@@H](CO)C(=O)NCC(=O)N[C@@H](C)C(=O)N1CCC[C@H]1C(=O)N1CCC[C@H]1C(=O)N1CCC[C@H]1C(=O)N[C@@H](CO)C(N)=O [Compound 115] ({Isobutyryl(2-(3-CN-5-F-Ph))-βAla}-[β3hD]GTFTSDYSI[Aib]LDKIAQK([AEEA-AEEA-γGlu-C20 diacid])AFVQWLIAGGPSSGAPPPS-NH2) | 100 to 1000 nM | 111% | > 1000 nM | 1 to 10 nM | 120% | > 1000 nM |  |  |  |  |  |  |
